Measured values from patent publication US8076457B2, “Crystal of a cytochrome-ligand complex and methods of use” (The Scripps Research Institute, priority 2005, dated 2011).

How the values were obtained:
CYP2A6dH [1] = target: T1, CYP2A6dH (Homo sapiens, UniProt P11509, Q458E); test: binding constants by visible difference spectroscopy (low spin to high spin conversion); conditions: for spectral change on binding to the purified enzyme: spectral titration, UV-visible
T1 construct: expressing residues 29-494 of the catalytic domain without internal modifications; 4xHis (C); made in house; host or cells: Escherichia coli
T1 sequence (P11509 with tags, fused parts or gaps Q458E): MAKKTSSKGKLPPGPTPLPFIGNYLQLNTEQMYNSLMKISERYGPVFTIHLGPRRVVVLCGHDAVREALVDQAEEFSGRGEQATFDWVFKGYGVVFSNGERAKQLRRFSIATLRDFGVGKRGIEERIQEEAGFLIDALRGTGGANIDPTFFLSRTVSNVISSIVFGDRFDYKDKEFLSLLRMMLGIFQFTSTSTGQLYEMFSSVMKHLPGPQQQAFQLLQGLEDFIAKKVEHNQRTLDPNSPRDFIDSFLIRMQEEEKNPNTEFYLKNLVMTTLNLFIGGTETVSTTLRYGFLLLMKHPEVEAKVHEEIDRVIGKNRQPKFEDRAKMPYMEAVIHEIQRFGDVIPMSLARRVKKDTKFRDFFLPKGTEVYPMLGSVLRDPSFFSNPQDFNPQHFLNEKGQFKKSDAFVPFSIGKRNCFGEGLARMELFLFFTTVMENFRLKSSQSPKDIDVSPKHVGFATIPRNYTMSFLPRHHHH
Method: Purified CYP2A6dH was diluted to ˜3 μM in 50 mM KPi pH 7.4, 500 mM NaCl, 20% glycerol, 1 mM EDTA (referred to as XB) in a 1-cm path length microcuvette. […] The total concentration of methanol remained under 1%. Binding was monitored as the absorbance difference, ΔA, between the peak (˜385 nm) and trough (˜417 nm) of the difference spectrum. The apparent binding constant, Ks, and the extrapolated maximum spectral change, ΔAmax, were estimated from nonlinear least-squares regression fitting using the following equation:
[formula] where S is the total concentration of ligand and P is the total concentration of P450.

[2] = target: T2, full length wild-type CYP2A6 (Homo sapiens, UniProt P11509); conditions: microsomal preparations from a panel of 12 human liver microsomes, cited from earlier work
T2 construct: for full length wild-type CYP2A6 in microsomal preparations; host or cells: human liver microsomes (panel of 12)
T2 sequence (P11509 1-494): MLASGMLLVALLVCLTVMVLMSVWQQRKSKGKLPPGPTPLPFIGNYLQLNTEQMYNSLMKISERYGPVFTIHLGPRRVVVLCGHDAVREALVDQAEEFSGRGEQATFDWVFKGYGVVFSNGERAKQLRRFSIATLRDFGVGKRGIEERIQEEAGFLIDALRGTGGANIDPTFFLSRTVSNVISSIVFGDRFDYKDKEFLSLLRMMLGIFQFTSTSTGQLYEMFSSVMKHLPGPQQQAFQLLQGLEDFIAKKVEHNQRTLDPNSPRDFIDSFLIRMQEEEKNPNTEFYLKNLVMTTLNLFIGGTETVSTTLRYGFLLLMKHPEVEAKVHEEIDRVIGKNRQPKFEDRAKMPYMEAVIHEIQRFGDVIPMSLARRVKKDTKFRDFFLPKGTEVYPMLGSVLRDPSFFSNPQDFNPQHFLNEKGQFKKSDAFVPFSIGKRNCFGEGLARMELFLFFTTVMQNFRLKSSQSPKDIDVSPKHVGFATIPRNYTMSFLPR

CYP2A6dH [3] = target: T1, CYP2A6dH; test: coumarin 7-hydroxylation by purified CYP2A6dH reconstituted with P450 reductase; assay type: biochemical
From the text: In this example, to determine catalytic properties for the purified protein, CYP2A6dH was reconstituted with E. coli-expressed purified human reductase in the absence of L-α-dilauroyl-L-α-lecithin with slight modifications to the protocol described by Tan et al. (Competitive interactions between CYP2A6 and cytochrome P450 2E1 for NADPH-cytochrome P450 oxidoreductase in the microsomal membranes produced by a baculovirus expression system. Arch. Biochem. Biophys. 342, 82-91 (1997)). 10 pmol CYP2A6dH was incubated on ice for 10 min. with 0.06 U human reductase at a ratio of 1:6, CYP2A6dH to reductase in a final volume of 10 μl. 1.2 benzopyrone at concentrations ranging from 25 μM to 2.5 mM were then added in […] aliquots, along with 430 μL of 50 mM Tris pH 7.4. The reaction mixture was allowed to equilibrate at 37° C. for 3 min. To start the reaction, 50 μl of an NADPH regeneration system (50 mM isocitrate, 50 mM MgCl2, 5 U/ml isocitrate dehydrogenase and 10 mM NADPH) was added. The reaction was allowed to proceed for 5 min., and stopped by addition of 100 μl of cold 20% trichloroacetic acid. The components were centrifuged at 13,000 rpm. 10 μl of the supernatant was removed and added to 190 μl 100 mM Tris buffer, pH 9.0. the coumarin content was quantified fluorometrically (excitation at 368 nm and emission at 453 nm).

| Structure (SMILES) | spectral change on binding to the purified enzyme (CYP2A6dH [1]) | Kd (CYP2A6dH [1]; substrate dependent conversion to high spin ferric heme protein, read-out: Dissociation constant for binding to purified CYP2A6dH) [nM] | Vmax of coumarin hydroxylation (mean value) [2] [nmols/min/nmol P450] | Km ([2]; read-out: Km of coumarin hydroxylation (mean value)) [µM] | Km (CYP2A6dH [3]) [µM] | Vmax for coumarin 7-hydroxylation (CYP2A6dH [3]) [nmols/min/nmol P450] |
| --- | --- | --- | --- | --- | --- | --- |
| O=c1ccc2ccccc2o1 [coumarin, 1,2-benzopyrone] | type I spectral change | 270 | 6.34 | 0.4 | 0.23 ± 0.03 | 10.83±1.38 |
| COc1c2occc2cc2ccc(=O)oc12 [methoxsalen, 8-methoxypsoralen] | type I spectral change |  |  |  |  |  |
